Tests used:
[1] = system: Tyrosine-protein kinase ABL1 (Homo sapiens), P00519 [Q252H]; assay: Inhibition of T7 bacteriophage fused human nonphosphorylated ABL1 Q252H mutant at 10 uM by KINOMEscan analysis relative to control
[2] = molecular target: Tyrosine-protein kinase ABL1 (Homo sapiens) (UniProt P00519); assay: Inhibition of T7 bacteriophage fused human phosphorylated ABL1 at 10 uM by KINOMEscan analysis relative to control
[3] = molecular target: Bone morphogenetic protein receptor type-1B (Homo sapiens) (UniProt O00238); assay: Inhibition of T7 bacteriophage fused human BMPR1B at 10 uM by KINOMEscan analysis relative to control
[4] = molecular target: Cyclin-dependent kinase-like 2 (Homo sapiens) (UniProt Q92772); assay: Inhibition of T7 bacteriophage fused human CDKL2 at 10 uM by KINOMEscan analysis relative to control
[5] = molecular target: Casein kinase I isoform alpha (Homo sapiens) (UniProt P48729); assay: Inhibition of T7 bacteriophage fused human CSNK1A1 at 10 uM by KINOMEscan analysis relative to control
[6] = molecular target: Serine/threonine-protein kinase 17A (Homo sapiens) (UniProt Q9UEE5); assay: Inhibition of T7 bacteriophage fused human DRAK1 at 10 uM by KINOMEscan analysis relative to control
[7] = system: Epidermal growth factor receptor (Homo sapiens), P00533 [L861Q]; assay: Inhibition of T7 bacteriophage fused human EGFR L861Q mutant at 10 uM by KINOMEscan analysis relative to control
[8] = molecular target: Ephrin type-A receptor 3 (Homo sapiens) (UniProt P29320); assay: Inhibition of T7 bacteriophage fused human EPHA3 at 10 uM by KINOMEscan analysis relative to control
[9] = molecular target: Tyrosine-protein kinase HCK (Homo sapiens) (UniProt P08631); assay: Inhibition of T7 bacteriophage fused human HCK at 10 uM by KINOMEscan analysis relative to control
Sequence of Tyrosine-protein kinase HCK (Homo sapiens) (P08631 2-526 limits assumed): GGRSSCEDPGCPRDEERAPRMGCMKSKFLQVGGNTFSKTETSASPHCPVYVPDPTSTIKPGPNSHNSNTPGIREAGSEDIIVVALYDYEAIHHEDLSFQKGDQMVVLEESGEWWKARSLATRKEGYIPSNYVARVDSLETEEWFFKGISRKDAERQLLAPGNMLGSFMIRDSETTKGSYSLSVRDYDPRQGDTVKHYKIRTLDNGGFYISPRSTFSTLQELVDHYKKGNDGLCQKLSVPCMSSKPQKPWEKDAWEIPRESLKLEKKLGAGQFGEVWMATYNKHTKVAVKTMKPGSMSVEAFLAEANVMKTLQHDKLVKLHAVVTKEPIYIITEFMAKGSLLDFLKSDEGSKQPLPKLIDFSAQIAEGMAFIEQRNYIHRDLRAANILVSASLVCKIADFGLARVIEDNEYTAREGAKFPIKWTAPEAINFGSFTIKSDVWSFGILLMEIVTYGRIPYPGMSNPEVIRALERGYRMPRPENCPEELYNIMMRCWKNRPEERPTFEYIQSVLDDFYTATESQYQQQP

[10] = molecular target: Interleukin-1 receptor-associated kinase 1 (Homo sapiens) (UniProt P51617); assay: Inhibition of T7 bacteriophage fused human IRAK1 at 10 uM by KINOMEscan analysis relative to control
Sequence of Interleukin-1 receptor-associated kinase 1 (Homo sapiens) (P51617 whole entry, looked up, the tested form may be a part): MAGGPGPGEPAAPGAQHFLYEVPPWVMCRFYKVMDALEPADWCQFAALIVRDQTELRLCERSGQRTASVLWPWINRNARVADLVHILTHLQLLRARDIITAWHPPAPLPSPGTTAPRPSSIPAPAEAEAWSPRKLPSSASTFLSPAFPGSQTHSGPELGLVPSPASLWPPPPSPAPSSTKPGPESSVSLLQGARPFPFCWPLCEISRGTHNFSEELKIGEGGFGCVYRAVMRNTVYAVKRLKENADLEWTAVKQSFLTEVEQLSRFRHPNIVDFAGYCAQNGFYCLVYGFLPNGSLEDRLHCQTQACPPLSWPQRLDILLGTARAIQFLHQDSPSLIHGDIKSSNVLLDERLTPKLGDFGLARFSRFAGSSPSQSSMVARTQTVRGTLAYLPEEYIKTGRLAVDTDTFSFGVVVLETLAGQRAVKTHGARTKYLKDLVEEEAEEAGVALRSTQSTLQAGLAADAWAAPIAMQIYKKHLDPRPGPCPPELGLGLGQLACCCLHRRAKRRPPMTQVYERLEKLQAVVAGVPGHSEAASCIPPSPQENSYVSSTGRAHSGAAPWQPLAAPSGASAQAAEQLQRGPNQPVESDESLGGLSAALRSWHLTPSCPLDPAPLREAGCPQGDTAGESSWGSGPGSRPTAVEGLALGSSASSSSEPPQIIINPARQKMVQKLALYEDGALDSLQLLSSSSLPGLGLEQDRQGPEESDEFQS

[11] = molecular target: Tyrosine-protein kinase JAK1 (Homo sapiens) (UniProt P23458); assay: Inhibition of T7 bacteriophage fused human JAK1 JH1catalytic domain at 10 uM by KINOMEscan analysis relative to control
Sequence of Tyrosine-protein kinase JAK1 (Homo sapiens) (P23458 whole entry, the tested form may be a part): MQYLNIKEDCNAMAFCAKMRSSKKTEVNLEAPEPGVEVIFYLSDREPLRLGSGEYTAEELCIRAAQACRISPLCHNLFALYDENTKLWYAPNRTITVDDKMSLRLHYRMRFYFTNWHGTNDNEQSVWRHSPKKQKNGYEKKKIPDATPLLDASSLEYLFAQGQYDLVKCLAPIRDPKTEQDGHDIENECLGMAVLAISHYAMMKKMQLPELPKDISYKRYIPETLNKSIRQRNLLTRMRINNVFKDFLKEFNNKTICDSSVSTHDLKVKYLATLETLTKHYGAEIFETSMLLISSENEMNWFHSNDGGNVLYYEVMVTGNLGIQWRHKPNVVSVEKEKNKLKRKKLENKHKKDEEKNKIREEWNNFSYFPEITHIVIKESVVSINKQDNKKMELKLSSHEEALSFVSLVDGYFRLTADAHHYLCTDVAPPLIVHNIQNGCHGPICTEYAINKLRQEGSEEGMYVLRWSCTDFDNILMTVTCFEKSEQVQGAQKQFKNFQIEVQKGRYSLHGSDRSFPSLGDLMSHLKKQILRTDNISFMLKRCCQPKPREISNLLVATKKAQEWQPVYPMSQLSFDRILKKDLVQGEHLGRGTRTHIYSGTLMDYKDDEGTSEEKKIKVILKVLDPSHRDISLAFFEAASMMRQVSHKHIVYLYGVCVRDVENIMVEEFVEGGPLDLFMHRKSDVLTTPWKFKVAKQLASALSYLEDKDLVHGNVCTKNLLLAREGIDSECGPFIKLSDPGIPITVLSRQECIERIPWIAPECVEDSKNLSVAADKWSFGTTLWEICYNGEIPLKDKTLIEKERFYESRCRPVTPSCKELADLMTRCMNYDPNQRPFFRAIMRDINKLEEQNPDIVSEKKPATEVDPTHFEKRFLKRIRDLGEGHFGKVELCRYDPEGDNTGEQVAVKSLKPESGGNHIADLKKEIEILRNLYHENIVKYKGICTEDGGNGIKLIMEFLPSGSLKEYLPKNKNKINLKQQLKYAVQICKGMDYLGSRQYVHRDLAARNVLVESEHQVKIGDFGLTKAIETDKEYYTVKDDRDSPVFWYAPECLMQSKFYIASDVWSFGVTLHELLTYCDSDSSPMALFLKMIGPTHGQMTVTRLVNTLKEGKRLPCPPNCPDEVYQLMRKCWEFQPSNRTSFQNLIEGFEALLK

[12] = molecular target: Tyrosine-protein kinase JAK1 (Homo sapiens) (UniProt P23458); assay: Inhibition of T7 bacteriophage fused human JAK1JH2 pseudokinase domain at 10 uM by KINOMEscan analysis relative to control
[13] = molecular target: Mast/stem cell growth factor receptor Kit (Homo sapiens) (UniProt P10721); assay: Inhibition of T7 bacteriophage fused human KIT at 10 uM by KINOMEscan analysis relative to control
Sequence of Mast/stem cell growth factor receptor Kit (Homo sapiens) (P10721 whole entry, the tested form may be a part): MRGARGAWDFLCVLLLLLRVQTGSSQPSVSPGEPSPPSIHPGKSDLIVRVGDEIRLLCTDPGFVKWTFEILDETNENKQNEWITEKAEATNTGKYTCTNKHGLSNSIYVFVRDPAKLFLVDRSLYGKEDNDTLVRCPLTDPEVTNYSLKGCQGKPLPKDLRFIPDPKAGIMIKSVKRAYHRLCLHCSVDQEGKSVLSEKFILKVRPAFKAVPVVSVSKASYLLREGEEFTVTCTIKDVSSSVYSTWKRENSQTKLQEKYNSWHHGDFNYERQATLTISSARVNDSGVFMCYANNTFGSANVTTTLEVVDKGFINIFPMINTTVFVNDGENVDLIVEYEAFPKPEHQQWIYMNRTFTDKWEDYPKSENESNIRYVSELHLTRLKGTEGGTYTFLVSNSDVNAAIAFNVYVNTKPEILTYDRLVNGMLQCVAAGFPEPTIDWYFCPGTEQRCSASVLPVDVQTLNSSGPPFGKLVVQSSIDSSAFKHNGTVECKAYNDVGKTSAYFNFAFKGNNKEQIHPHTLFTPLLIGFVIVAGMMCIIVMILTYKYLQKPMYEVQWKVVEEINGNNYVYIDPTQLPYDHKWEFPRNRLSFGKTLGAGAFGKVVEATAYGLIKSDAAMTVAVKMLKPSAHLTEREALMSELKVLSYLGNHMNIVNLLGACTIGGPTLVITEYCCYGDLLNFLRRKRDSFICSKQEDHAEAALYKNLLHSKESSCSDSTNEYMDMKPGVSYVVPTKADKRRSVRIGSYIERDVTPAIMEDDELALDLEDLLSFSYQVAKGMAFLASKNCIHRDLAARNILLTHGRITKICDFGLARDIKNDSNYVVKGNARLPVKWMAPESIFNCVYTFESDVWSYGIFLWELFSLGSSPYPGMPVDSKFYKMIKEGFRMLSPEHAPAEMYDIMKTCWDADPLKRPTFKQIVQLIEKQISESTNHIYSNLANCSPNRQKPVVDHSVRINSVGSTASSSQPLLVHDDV

[14] = system: Mast/stem cell growth factor receptor Kit (Homo sapiens), P10721 [L576P]; assay: Inhibition of T7 bacteriophage fused human KIT L576P mutant at 10 uM by KINOMEscan analysis relative to control
Sequence of Mast/stem cell growth factor receptor Kit (Homo sapiens), P10721 [L576P] (P10721 whole entry L576P, the tested form may be a part): as the sequence (P10721 whole entry, the tested form may be a part) above, with L576P counted along it

[15] = molecular target: Serine/threonine-protein kinase LATS1 (Homo sapiens) (UniProt O95835); assay: Inhibition of T7 bacteriophage fused human LATS1 at 10 uM by KINOMEscan analysis relative to control
[16] = molecular target: LIM domain kinase 2 (Homo sapiens) (UniProt P53671); assay: Inhibition of T7 bacteriophage fused human LIMK2 at 10 uM by KINOMEscan analysis relative to control
[17] = molecular target: Mitogen-activated protein kinase kinase kinase 3 (Homo sapiens) (UniProt Q99759); assay: Inhibition of T7 bacteriophage fused human MAP3K3 at 10 uM by KINOMEscan analysis relative to control
[18] = molecular target: Serine/threonine-protein kinase MARK2 (Homo sapiens) (UniProt Q7KZI7); assay: Inhibition of T7 bacteriophage fused human MARK2 at 10 uM by KINOMEscan analysis relative to control
[19] = molecular target: Serine/threonine-protein kinase PAK 4 (Homo sapiens) (UniProt O96013); assay: Inhibition of T7 bacteriophage fused human PAK4 at 10 uM by KINOMEscan analysis relative to control
[20] = molecular target: Platelet-derived growth factor receptor alpha (Homo sapiens) (UniProt P16234); assay: Inhibition of T7 bacteriophage fused human PDGFRA at 10 uM by KINOMEscan analysis relative to control
[21] = system: Phosphatidylinositol 4,5-bisphosphate 3-kinase catalytic subunit alpha isoform (Homo sapiens), P42336 [H1047Y]; assay: Inhibition of T7 bacteriophage fused human PIK3CA H1047Y mutant at 10 uM by KINOMEscan analysis relative to control
[22] = molecular target: Serine/threonine-protein kinase RIO3 (Homo sapiens) (UniProt O14730); assay: Inhibition of T7 bacteriophage fused human RIOK3 at 10 uM by KINOMEscan analysis relative to control
[23] = molecular target: Tyrosine-protein kinase ZAP-70 (Homo sapiens) (UniProt P43403); assay: Inhibition of T7 bacteriophage fused human ZAP70 at 10 uM by KINOMEscan analysis relative to control
[24] = molecular target: Tyrosine-protein kinase Fes/Fps (Homo sapiens) (UniProt P07332); assay: Inhibition of T7 bacteriophage fused human FES at 10 uM by KINOMEscan analysis relative to control; values are per cent of control
[25] = molecular target: Serine/threonine-protein kinase NLK (Homo sapiens) (UniProt Q9UBE8); assay: Inhibition of T7 bacteriophage fused human NLK at 10 uM by KINOMEscan analysis relative to control; values are per cent of control
[26] = molecular target: Epidermal growth factor receptor (Homo sapiens) (UniProt P00533); assay: Inhibition of T7 bacteriophage fused human EGFR at 10 uM by KINOMEscan analysis relative to control; values are per cent of control
[27] = molecular target: Mitogen-activated protein kinase 1 (Homo sapiens) (UniProt P28482); assay: Inhibition of T7 bacteriophage fused human ERK2 at 10 uM by KINOMEscan analysis relative to control; values are per cent of control
[28] = molecular target: G protein-coupled receptor kinase 4 (Homo sapiens) (UniProt P32298); assay: Inhibition of T7 bacteriophage fused human GRK4 at 10 uM by KINOMEscan analysis relative to control; values are per cent of control
Sequence of G protein-coupled receptor kinase 4 (Homo sapiens) (P32298 whole entry, looked up, the tested form may be a part): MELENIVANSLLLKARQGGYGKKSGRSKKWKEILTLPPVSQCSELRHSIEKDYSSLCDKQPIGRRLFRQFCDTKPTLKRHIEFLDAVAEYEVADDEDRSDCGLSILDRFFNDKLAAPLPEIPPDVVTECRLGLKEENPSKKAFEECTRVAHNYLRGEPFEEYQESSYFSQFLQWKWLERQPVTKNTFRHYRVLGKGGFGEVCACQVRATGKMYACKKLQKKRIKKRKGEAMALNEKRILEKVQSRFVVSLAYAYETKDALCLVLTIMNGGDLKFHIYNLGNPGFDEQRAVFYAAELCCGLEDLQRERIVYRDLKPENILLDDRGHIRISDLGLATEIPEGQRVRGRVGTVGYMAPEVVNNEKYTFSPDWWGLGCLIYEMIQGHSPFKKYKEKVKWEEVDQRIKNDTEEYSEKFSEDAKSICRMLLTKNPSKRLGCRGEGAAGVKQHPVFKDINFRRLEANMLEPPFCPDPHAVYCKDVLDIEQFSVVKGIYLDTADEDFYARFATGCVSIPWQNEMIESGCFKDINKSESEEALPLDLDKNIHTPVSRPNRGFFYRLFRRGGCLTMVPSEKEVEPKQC

[29] = molecular target: Macrophage colony-stimulating factor 1 receptor (Homo sapiens) (UniProt P07333); assay: Inhibition of T7 bacteriophage fused human CSF1R at 10 uM by KINOMEscan analysis relative to control; values are per cent of control
[30] = molecular target: Ephrin type-A receptor 7 (Homo sapiens) (UniProt Q15375); assay: Inhibition of T7 bacteriophage fused human EPHA7 at 10 uM by KINOMEscan analysis relative to control; values are per cent of control

COc1cc(N2CCC(N3CCN(C)CC3)CC2)ccc1Nc1ncc2c(n1)N(C)c1ccccc1C(=O)N2C
inhibition [1]: 100%
inhibition [2]: 82%
inhibition [3]: 76%
inhibition [4]: 100%
inhibition [5]: 100%
inhibition [6]: 100%
inhibition [7]: 100%
inhibition [8]: 100%
inhibition [9]: 100%
inhibition [10]: 100%
inhibition [11]: 100%
inhibition [12]: 92%
inhibition [13]: 100%
inhibition [14]: 100%
inhibition [15]: 100%
inhibition [16]: 100%
inhibition [17]: 97%
inhibition [18]: 100%
inhibition [19]: 94%
inhibition [20]: 100%
inhibition [21]: 71%
inhibition [22]: 85%
inhibition [23]: 79%
residual activity [24]: 84%
residual activity [25]: 50%
residual activity [26]: 84%
residual activity [27]: 85%
residual activity [28]: 86%
residual activity [29]: 98%
residual activity [30]: 97%

Source: ChEMBL document CHEMBL5678810
